This passage reports LogP and chromatographic logP results from patent US10039283B2, “Substituted pyrazolyl-nicotin(thio)amide derivatives and their use as fungicides” (BAYER CROPSCIENCE AKTIENGESELLSCHAFT, priority 2014, dated 2018).

As usually defined, the chromatographic logP is lipophilicity estimated from chromatographic retention. A high value points to a more lipophilic compound.

The nature of the first data set: Log P by HPLC on reversed phase, method [a], acidic range (0.1% formic acid). Format: physicochemical. Particulars: LC-UV, 0.1% formic acid in water and acetonitrile.
As to `Cc1c(NC(=O)c2cccnc2C(F)F)cnn1CCC(C)C` [Example 2], the LogP was 2.01^[a].

With `CC(C)c1cccc(-n2ncc(NC(=O)c3cccnc3C(F)F)c2C(F)(F)F)c1` [Example 3], the LogP is 3.51^[a].

With `Cc1cnc(C(F)F)c(C(=O)Nc2cnn(-c3ccccc3)c2C(F)(F)F)c1` [Example 4], the LogP is 2.44^[a].

As for `Cc1c(NC(=O)c2cccnc2C(F)F)cnn1-c1cccc(Cl)c1` [Example 5], the LogP was 2.25^[a].

As for `Cc1c(NC(=O)c2cccnc2C(F)F)cnn1C(C)(C)C` [Example 6], the LogP is 1.63^[a].

With `CCCCn1ncc(NC(=O)c2cccnc2C(F)F)c1C` [Example 7], the LogP is 1.69^[a].

With `CCC(CC)n1ncc(NC(=O)c2cccnc2C(F)F)c1C` [Example 8], the LogP is 1.89^[a].

As to `O=C(Nc1cnn(-c2ccccc2)c1C(F)(F)F)c1cccnc1C(F)F` [Example 9], the LogP is 2.53^[a].

As to `O=C(Nc1cnn(-c2ccc(Cl)cc2)c1C(F)(F)F)c1cccnc1C(F)F` [Example 10], the LogP is 3.02^[a].

As for `Cc1c(NC(=O)c2cccnc2C(F)F)cnn1C1CCCC1` [Example 11], the LogP was 1.83^[a].

As to `Cc1c(NC(=O)c2cccnc2C(F)F)cnn1-c1ccccc1` [Example 12], the LogP was 1.78^[a].

Take `Cc1ccc(C)c(-n2ncc(NC(=O)c3cccnc3C(F)F)c2C)c1` [Example 13]: the LogP was 2.25^[a].

As for `CC(C)n1ncc(NC(=O)c2cccnc2C(F)F)c1C1CC1` [Example 14], the LogP was 1.68^[a].

On to `Cc1nn(-c2cccc(F)c2)c(C)c1NC(=O)c1cccnc1C(F)F` [Example 15], for which the LogP was 1.99^[a].

For `Cc1nn(-c2cccc(F)c2)c(C)c1NC(=O)c1cccnc1C(F)(F)F` [Example 16], the LogP is 2.27^[a].

As to `Cc1nn(-c2ccccc2)c(C)c1NC(=O)c1cccnc1C(F)F` [Example 17], the LogP is 1.81^[a].

For `Cc1nn(-c2ccccc2)c(C)c1NC(=O)c1cccnc1C(F)(F)F` [Example 18], the LogP was 2.07^[a].

`O=C(Nc1cnn(-c2ccc(Cl)cc2)c1C(F)F)c1cccnc1C(F)F` [Example 23]: the LogP is 2.69^[a].

`O=C(Nc1cnn(-c2cccc(Cl)c2)c1C(F)F)c1cccnc1C(F)F` [Example 24]: the LogP is 2.69^[a].

On to `O=C(Nc1cnn(-c2cccc(F)c2)c1C(F)F)c1cccnc1C(F)F` [Example 25], for which the LogP was 2.37^[a].

On to `O=C(Nc1cnn(-c2cccc(C(F)F)c2)c1C(F)F)c1cccnc1C(F)F` [Example 26], for which the LogP is 2.48^[a].

Take `Cc1ccccc1-n1ncc(NC(=O)c2cccnc2C(F)F)c1C(F)F` [Example 27]: the LogP is 2.37^[a].

With `O=C(Nc1cnn(-c2ccc(Br)cc2)c1C(F)F)c1cccnc1C(F)F` [Example 28], the LogP was 2.80^[a].

As for `O=C(Nc1cnn(-c2cc(F)cc(F)c2)c1C(F)F)c1cccnc1C(F)F` [Example 29], the LogP is 2.62^[a].

For the compound `O=C(Nc1cnn(-c2cccc(C(F)(F)F)c2)c1C(F)F)c1cccnc1C(F)F` [Example 30], the LogP was 2.88^[a].

Take `O=C(Nc1cnn(-c2ccccc2C(F)(F)F)c1C(F)F)c1cccnc1C(F)F` [Example 31]: the LogP was 2.51^[a].

`O=C(Nc1cnn(-c2ccc(F)cc2)c1C(F)F)c1cccnc1C(F)F` [Example 32]: the LogP is 2.20^[a].

`O=C(Nc1cnn(-c2ccccc2F)c1C(F)F)c1cccnc1C(F)F` [Example 33]: the LogP is 2.32^[a].

For `Cc1nn(-c2ccccc2)c(Br)c1NC(=O)c1cccnc1C(F)F` [Example 35], the LogP was 2.07^[a].

For `Cc1cnc(C(F)F)c(C(=O)Nc2cnn(C(C)(C)C)c2C)c1` [Example 36], the LogP is 1.90^[a].

Consider `Cc1c(NC(=O)c2ccc(Cl)nc2C(F)F)cnn1C(C)(C)C` [Example 37], for which the LogP is 2.25^[a].

`CCC(CC)n1ncc(NC(=O)c2cc(C)cnc2C(F)F)c1C` [Example 38]: the LogP is 2.12^[a].

Turning to `CCC(CC)n1ncc(NC(=O)c2ccc(Cl)nc2C(F)F)c1C` [Example 39], the LogP was 2.51^[a].

Take `Cc1cnc(C(F)F)c(C(=O)Nc2cnn(C3CCCC3)c2C)c1` [Example 40]: the LogP was 2.09^[a].

In the case of `Cc1c(NC(=O)c2ccc(Cl)nc2C(F)F)cnn1C1CCCC1` [Example 41], the LogP is 2.46^[a].

On to `Cc1cnc(C(F)F)c(C(=O)Nc2cnn(C(C)C)c2C2CC2)c1` [Example 42], for which the LogP is 1.95^[a].

For `CC(C)n1ncc(NC(=O)c2ccc(Cl)nc2C(F)F)c1C1CC1` [Example 43], the LogP is 2.33^[a].

In the case of `Cc1ccc(C)c(-n2ncc(NC(=O)c3ccc(Cl)nc3C(F)F)c2C)c1` [Example 45], the LogP was 2.88^[a].

Take `Cc1c(NC(=O)c2cccnc2C(F)F)cnn1-c1ccc(Cl)cc1` [Example 46]: the LogP is 2.25^[a].

For the compound `Cc1c(NC(=O)c2cccnc2C(F)F)cnn1-c1ccccc1Cl` [Example 47], the LogP is 1.94^[a].

Turning to `Cc1cccc(-n2ncc(NC(=O)c3cccnc3C(F)F)c2C)c1` [Example 48], the LogP was 2.11^[a].

For the compound `O=C(Nc1cnn(-c2ccccc2C(F)(F)F)c1C(F)(F)F)c1cccnc1C(F)F` [Example 49], the LogP was 2.82^[a].

Turning to `O=C(Nc1cnn(-c2ccc(C(F)(F)F)cc2)c1C(F)(F)F)c1cccnc1C(F)F` [Example 50], the LogP is 3.21^[a].

For the compound `O=C(Nc1cnn(-c2cccc(C(F)(F)F)c2)c1-c1cccc(Cl)c1)c1cccnc1C(F)F` [Example 53], the LogP was 3.48^[a].

As for `O=C(Nc1cnn(-c2cccc(Cl)c2)c1-c1cccc(Cl)c1)c1cccnc1C(F)F` [Example 54], the LogP was 3.31^[a].

`O=C(Nc1cnn(-c2ccc(C(F)(F)F)cc2)c1-c1cccc(Cl)c1)c1cccnc1C(F)F` [Example 55]: the LogP is 3.58^[a].

For the compound `O=C(Nc1cnn(-c2ccc(Cl)cc2)c1-c1cccc(Cl)c1)c1cccnc1C(F)F` [Example 56], the LogP is 3.35^[a].

With `O=C(Nc1cnn(-c2ccccc2F)c1-c1cccc(Cl)c1)c1cccnc1C(F)F` [Example 57], the LogP was 2.75^[a].

In the case of `O=C(Nc1cnn(-c2cccc(F)c2)c1-c1cccc(Cl)c1)c1cccnc1C(F)F` [Example 58], the LogP is 2.98^[a].

For the compound `O=C(Nc1cnn(-c2cccc(Br)c2)c1C(F)(F)F)c1cccnc1C(F)F` [Example 60], the LogP was 3.09^[a].

`O=C(Nc1cnn(-c2cc(F)cc(F)c2)c1C(F)(F)F)c1cccnc1C(F)F` [Example 61]: the LogP is 2.88^[a].

With `O=C(Nc1cnn(-c2cccc(F)c2)c1C(F)(F)F)c1cccnc1C(F)F` [Example 62], the LogP was 2.66^[a].

In the case of `O=C(Nc1cnn(-c2ccc(Br)cc2)c1C(F)(F)F)c1cccnc1C(F)F` [Example 63], the LogP was 3.13^[a].

As for `O=C(Nc1cnn(-c2cccc(C(F)F)c2)c1C(F)(F)F)c1cccnc1C(F)F` [Example 64], the LogP is 2.71^[a].

`Cc1cnc(C(F)F)c(C(=O)Nc2cnn(-c3cccc(Cl)c3)c2C)c1` [Example 65]: the LogP is 2.51^[a].

Consider `Cc1c(NC(=O)c2ccc(Cl)nc2C(F)F)cnn1-c1cccc(Cl)c1` [Example 66], for which the LogP is 2.88^[a].

As to `Cc1cccc(-n2ncc(NC(=O)c3cc(C)cnc3C(F)F)c2C)c1` [Example 67], the LogP was 2.35^[a].

On to `Cc1cccc(-n2ncc(NC(=O)c3ccc(Cl)nc3C(F)F)c2C)c1` [Example 68], for which the LogP is 2.73^[a].

On to `Cc1cnc(C(F)F)c(C(=O)Nc2cnn(-c3ccccc3Cl)c2C)c1` [Example 69], for which the LogP is 2.17^[a].

For `Cc1c(NC(=O)c2ccc(Cl)nc2C(F)F)cnn1-c1ccccc1Cl` [Example 70], the LogP is 2.56^[a].

Consider `Cc1cnc(C(F)F)c(C(=O)Nc2cnn(-c3ccc(Cl)cc3)c2C)c1` [Example 71], for which the LogP was 2.49^[a].

On to `Cc1c(NC(=O)c2ccc(Cl)nc2C(F)F)cnn1-c1ccc(Cl)cc1` [Example 72], for which the LogP is 2.86^[a].

`Cc1ccccc1-n1ncc(NC(=O)c2cccnc2C(F)F)c1C(F)(F)F` [Example 73]: the LogP was 2.71^[a].

Consider `O=C(Nc1cnn(-c2ccccc2Br)c1C(F)(F)F)c1cccnc1C(F)F` [Example 74], for which the LogP is 2.71^[a].

Regarding `Cc1nn(-c2ccccc2)c(Cl)c1NC(=O)c1cccnc1C(F)F` [Example 75], the LogP is 2.08^[a].

`COc1c(NC(=O)c2cccnc2C(F)F)c(C)nn1-c1ccccc1` [Example 76]: the LogP was 1.88^[a].

On to `O=C(Nc1cnn(-c2ccccc2C(F)(F)F)c1-c1cccc(Cl)c1)c1cccnc1C(F)F` [Example 78], for which the LogP was 3.06^[a].

On to `O=C(Nc1cnn(-c2ccccc2Cl)c1-c1ccccc1)c1cccnc1C(F)F` [Example 79], for which the LogP is 2.53^[a].

Take `O=C(Nc1cnn(-c2ccccc2Cl)c1-c1ccc(Cl)cc1)c1cccnc1C(F)F` [Example 80]: the LogP was 2.90^[a].

Take `O=C(Nc1cnn(-c2ccccc2Cl)c1-c1cccc(Cl)c1)c1cccnc1C(F)F` [Example 81]: the LogP was 2.88^[a].

Turning to `O=C(Nc1cnn(-c2ccccc2Cl)c1-c1cccc(F)c1)c1cccnc1C(F)F` [Example 82], the LogP is 2.66^[a].

`O=C(Nc1cnn(-c2ccccc2Cl)c1-c1ccc(F)cc1)c1cccnc1C(F)F` [Example 83]: the LogP was 2.66^[a].

Still in this data set, the particulars now being: reversed phase HPLC column, LC-UV, 0.1% formic acid in water and acetonitrile.
Consider `O=C(Nc1cnn(-c2ccccc2)c1C(F)(F)F)c1ccc(Cl)nc1C(F)F` [Example 1, 6-chloro-2-(difluoromethyl)-N-[1-phenyl-5-(trifluoromethyl)-1H-pyrazol-4-yl]nicotinamide], for which the chromatographic logP was determined as 2.8.

In turn, `FC(F)c1cccc(-n2ncc(NC(=S)c3cccnc3C(F)F)c2C(F)F)c1` [Example 34, 2-(difluoromethyl)-N-{5-(difluoromethyl)-1-[3-(difluoromethyl)phenyl]-1H-pyrazol-4-yl}pyridine-3-carbothioamide] came in with a chromatographic logP of 2.9.
